Test results: article PMC5591855, “d-Tubocurarine and Berbamine: Alkaloids That Are Permeant Blockers of the Hair Cell's Mechano-Electrical Transducer Channel and Protect from Aminoglycoside Toxicity” (Frontiers in Cellular Neuroscience, 2017)

System: T1, mechano-electrical transducer (MET) channel
T1 construct: native channel in CD-1 mouse cochlear outer hair cells (organotypic cultures)
Test: whole-cell patch clamp of MET currents, extracellular block at -104 mV, […] Ca2+
Format: cell-based, Mus musculus
Details: read-out: Kd

| Compound | IC50 [nM] |
| --- | --- |
| COc1cc2c3cc1Oc1cc(ccc1O)C[C@@H]1c4c(cc(OC)c(O)c4Oc4ccc(cc4)C[C@@H]3N(C)CC2)CC[N+]1(C)C [dTC, d-Tubocurarine] | 2200 |
| berbamine | 2800 |
